Measurements: patent publication US20170008888A1 (KYORIN PHARMACEUTICAL CO., LTD., priority 2014, published 2017)

Legend:
Assay type in all cases: binding
AMPKa1 or AMPKa2 = assay: Probe-based (AX9989) kinase profiling in Jurkat lysate: AMPKa1 or AMPKa2; conditions: screening concentration 1.0 μM
Description: (§1) In this example, potency of the compounds as ERK5 inhibitors was assessed, and the compounds were screened for activity against several kinases in Jurkat cells.
(§2) Jurkat cell pellets were resuspended in four volumes of lysis buffer (50 mM HEPES pH 7.5, 150 mM NaCl, 0.1% Triton-X-100, 1% v/v phosphatase, inhibitor cocktail II [EMD/Calbiochem, #524625]), sonicated using a tip, sonicator, and Dounce homogenized. Lysate was cleared by centrifugation, at 16,000 g for 15 min., was gel filtered (BioRad 10DG) and MnCl2 was then added to a final concentration of 20 mM before treatment with the test compound and probe labeling. […] All compound treatments were performed at room temperature.
(§3) Acyl phosphate ATP probe (AX9989) labeling reactions were performed at room temperature with a final probe concentration of 5 μM after a 15 min pre-incubation of lysate with a test compound. All reactions were performed in duplicate, using 445 μl/sample at 5 mg/ml. Probe-labeled lysates were denatured and reduced (6 M urea, 10 mM DTT, 65° C., 15 min), alkylated (40 mM iodoacetamide, 37° C., 30 min, and gel filtered (Sephadex G25) into 10 mM ammonium bicarbonate, 2 M urea, 5 mM methionine. The desalted protein mixture was digested with trypsin (0.015 mg/ml) for 1 hr at 37° C., and desthiobiotinylated peptides were captured using a […] high-capacity streptavidin resin (Thermo Scientific). Captured peptides were then washed extensively using 150 μl/wash with three different wash buffers: (A) 3 times with 1% triton, 0.5% tergitol, 1 mM EDTA in PBS; (B) 18 times with PBS; and (C) 8 times with HPLC grade water. Peptides were eluted from the streptavidin beads using two 35-μL washes of a 50% CH3CN/water mixture containing 0.1% TFA at room temperature.
(§4) Kinase active site peptides were identified and quantified using LC/MS. Percent inhibition was calculated as the normalized decrease in the ESI-MS fragment intensities of probe-labeled peptides in samples incubated with the test compound compared to those without.

AurB or AurC = assay: Probe-based (AX9989) kinase profiling in Jurkat lysate: AurB or AurC; conditions: screening concentration 1.0 μM
Description: as §1, §2, §3, §4

TAO2 = target: T1, TAO2 (Homo sapiens, UniProt Q9UL54); assay: Probe-based (AX9989) kinase profiling in Jurkat lysate: TAO2; conditions: screening concentration 1.0 μM; read-out: Kinase inhibition % at indicated screening concentration: TAO2
T1 construct: screened for activity against several kinases in Jurkat cells; endogenous in cells; host or cells: Jurkat cell lysate
T1 sequence (Q9UL54 1-1235): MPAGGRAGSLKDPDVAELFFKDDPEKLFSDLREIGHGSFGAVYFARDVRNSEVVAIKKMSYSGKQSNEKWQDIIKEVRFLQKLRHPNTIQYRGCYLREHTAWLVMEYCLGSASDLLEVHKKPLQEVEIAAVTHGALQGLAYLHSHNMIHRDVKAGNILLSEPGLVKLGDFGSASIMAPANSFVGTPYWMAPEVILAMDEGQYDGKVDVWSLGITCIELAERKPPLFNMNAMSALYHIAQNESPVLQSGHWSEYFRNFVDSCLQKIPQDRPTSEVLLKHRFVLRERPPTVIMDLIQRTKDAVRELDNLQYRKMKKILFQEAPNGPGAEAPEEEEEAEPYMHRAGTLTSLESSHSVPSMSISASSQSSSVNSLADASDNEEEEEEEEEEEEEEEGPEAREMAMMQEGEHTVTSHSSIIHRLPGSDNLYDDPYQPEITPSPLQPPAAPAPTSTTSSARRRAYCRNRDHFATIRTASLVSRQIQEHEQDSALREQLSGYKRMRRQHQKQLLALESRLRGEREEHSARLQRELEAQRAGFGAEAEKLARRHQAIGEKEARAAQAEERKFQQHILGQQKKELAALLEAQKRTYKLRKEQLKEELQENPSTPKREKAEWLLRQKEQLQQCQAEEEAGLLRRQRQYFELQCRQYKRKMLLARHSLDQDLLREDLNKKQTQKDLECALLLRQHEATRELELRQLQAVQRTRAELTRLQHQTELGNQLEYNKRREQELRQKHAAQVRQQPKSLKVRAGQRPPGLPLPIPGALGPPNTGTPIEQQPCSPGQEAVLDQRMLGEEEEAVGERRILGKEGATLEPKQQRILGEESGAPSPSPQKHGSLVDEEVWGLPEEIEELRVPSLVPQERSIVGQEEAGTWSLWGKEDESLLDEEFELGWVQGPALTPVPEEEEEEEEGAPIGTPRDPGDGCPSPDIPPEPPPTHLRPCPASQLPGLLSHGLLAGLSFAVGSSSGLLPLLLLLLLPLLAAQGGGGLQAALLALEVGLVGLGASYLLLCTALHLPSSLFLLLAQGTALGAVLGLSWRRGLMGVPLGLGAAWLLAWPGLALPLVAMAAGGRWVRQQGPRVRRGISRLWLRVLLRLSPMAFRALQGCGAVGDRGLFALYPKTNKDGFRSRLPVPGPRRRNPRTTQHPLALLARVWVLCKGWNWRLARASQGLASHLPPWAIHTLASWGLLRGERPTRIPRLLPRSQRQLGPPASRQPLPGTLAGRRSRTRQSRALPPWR
Description: as §1, §2, §3, §4

ERK5 = target: T2, ERK5 (Homo sapiens, UniProt Q13164); assay: Probe-based (AX9989 acyl phosphate ATP probe) kinase profiling in Jurkat lysate: ERK5; conditions: for IC50: calculated from percent inhibition of AX9989 labeling and the screening concentration, Jurkat lysate; for inhibition at 1 µM: screening concentration 1.0 μM, read-out: Kinase inhibition % at indicated screening concentration: ERK5
T2 construct: screened for activity against several kinases in Jurkat cells; endogenous in cells; host or cells: Jurkat cell lysate
Description: as §1, §2, §3, §4
ERK5 IC50 values were calculated from the percent inhibition and the screening concentration.

JAK1 = target: T3, JAK1 (Homo sapiens, UniProt P23458); assay: Probe-based (AX9989) kinase profiling in Jurkat lysate: JAK1; conditions: screening concentration 1.0 μM; read-out: Kinase inhibition % at indicated screening concentration: JAK1
T3 construct: screened for activity against several kinases in Jurkat cells; endogenous in cells; host or cells: Jurkat cell lysate
Description: as §1, §2, §3, §4

AurA = target: T4, AurA (Homo sapiens, UniProt O14965); assay: Probe-based (AX9989) kinase profiling in Jurkat lysate: AurA; conditions: screening concentration 1.0 μM; read-out: Kinase inhibition % at indicated screening concentration: AurA
T4 construct: screened for activity against several kinases in Jurkat cells; endogenous in cells; host or cells: Jurkat cell lysate
T4 sequence (O14965 1-403): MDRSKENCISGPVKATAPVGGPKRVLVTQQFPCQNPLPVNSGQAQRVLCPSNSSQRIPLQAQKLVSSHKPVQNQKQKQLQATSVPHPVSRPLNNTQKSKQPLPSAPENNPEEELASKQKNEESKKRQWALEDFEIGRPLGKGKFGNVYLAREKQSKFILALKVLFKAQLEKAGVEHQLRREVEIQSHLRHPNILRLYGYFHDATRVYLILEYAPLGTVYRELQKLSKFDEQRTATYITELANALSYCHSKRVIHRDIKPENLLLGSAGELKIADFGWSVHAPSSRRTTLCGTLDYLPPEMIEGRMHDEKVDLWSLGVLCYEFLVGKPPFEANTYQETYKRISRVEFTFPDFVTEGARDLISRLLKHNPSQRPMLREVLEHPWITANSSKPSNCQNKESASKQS
Description: as §1, §2, §3, §4

ACK = target: T5, ACK (Homo sapiens, UniProt Q07912); assay: Probe-based (AX9989) kinase profiling in Jurkat lysate: ACK; conditions: screening concentration 1.0 μM; read-out: Kinase inhibition % at indicated screening concentration: ACK
T5 construct: screened for activity against several kinases in Jurkat cells; endogenous in cells; host or cells: Jurkat cell lysate
Description: as §1, §2, §3, §4

ABL or ARG = assay: Probe-based (AX9989) kinase profiling in Jurkat lysate: ABL or ARG; conditions: screening concentration 1.0 μM
Description: as §1, §2, §3, §4

T5 sequence (Q07912 whole entry): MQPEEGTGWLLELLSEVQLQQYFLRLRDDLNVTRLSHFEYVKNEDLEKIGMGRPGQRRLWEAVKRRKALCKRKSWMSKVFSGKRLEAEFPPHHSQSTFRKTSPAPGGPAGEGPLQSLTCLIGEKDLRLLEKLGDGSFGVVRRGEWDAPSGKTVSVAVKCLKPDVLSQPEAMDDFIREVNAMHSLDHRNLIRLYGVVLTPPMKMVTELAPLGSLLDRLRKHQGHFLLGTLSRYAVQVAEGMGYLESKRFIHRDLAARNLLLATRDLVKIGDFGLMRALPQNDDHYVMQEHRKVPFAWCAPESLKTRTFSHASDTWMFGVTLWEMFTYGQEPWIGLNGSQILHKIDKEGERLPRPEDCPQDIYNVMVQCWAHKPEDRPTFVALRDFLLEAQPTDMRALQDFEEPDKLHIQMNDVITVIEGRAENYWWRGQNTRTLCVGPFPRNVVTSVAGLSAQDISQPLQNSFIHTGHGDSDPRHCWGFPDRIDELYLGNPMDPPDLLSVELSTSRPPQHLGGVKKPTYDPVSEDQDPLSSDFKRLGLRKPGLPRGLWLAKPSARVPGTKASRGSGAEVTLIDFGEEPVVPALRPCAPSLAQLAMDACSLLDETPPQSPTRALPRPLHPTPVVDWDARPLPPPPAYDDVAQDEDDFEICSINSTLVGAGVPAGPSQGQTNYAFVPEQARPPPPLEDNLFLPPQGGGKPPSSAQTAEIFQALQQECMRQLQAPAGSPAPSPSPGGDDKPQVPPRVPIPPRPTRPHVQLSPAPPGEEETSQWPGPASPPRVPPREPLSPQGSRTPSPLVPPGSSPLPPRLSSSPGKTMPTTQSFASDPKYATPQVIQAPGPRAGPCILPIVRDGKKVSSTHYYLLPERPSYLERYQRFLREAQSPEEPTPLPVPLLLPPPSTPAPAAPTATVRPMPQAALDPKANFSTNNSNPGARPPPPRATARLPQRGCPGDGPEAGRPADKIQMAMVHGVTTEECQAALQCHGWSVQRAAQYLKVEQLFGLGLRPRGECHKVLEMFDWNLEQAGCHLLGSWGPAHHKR
T2 sequence (Q13164 whole entry): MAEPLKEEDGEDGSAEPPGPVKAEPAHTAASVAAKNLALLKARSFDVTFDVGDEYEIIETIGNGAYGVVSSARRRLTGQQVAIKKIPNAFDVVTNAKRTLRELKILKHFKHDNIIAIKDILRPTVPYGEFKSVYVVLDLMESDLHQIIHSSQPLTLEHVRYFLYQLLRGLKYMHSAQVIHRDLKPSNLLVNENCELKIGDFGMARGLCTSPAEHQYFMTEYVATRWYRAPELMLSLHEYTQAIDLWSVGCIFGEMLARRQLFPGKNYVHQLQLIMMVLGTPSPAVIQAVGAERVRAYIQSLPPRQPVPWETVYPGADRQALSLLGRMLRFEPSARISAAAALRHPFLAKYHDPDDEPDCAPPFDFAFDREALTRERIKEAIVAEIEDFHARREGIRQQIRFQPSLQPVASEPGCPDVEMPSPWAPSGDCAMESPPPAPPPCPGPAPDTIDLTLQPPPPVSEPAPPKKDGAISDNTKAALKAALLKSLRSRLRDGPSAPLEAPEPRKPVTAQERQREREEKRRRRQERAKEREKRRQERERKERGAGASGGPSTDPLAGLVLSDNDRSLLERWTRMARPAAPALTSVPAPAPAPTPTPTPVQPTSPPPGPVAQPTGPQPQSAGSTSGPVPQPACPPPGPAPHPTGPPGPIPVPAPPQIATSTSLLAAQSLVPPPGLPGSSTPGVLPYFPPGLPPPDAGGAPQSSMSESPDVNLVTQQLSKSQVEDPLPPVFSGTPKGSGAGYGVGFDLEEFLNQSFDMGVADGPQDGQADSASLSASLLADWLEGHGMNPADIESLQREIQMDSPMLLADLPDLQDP
T3 sequence (P23458 whole entry): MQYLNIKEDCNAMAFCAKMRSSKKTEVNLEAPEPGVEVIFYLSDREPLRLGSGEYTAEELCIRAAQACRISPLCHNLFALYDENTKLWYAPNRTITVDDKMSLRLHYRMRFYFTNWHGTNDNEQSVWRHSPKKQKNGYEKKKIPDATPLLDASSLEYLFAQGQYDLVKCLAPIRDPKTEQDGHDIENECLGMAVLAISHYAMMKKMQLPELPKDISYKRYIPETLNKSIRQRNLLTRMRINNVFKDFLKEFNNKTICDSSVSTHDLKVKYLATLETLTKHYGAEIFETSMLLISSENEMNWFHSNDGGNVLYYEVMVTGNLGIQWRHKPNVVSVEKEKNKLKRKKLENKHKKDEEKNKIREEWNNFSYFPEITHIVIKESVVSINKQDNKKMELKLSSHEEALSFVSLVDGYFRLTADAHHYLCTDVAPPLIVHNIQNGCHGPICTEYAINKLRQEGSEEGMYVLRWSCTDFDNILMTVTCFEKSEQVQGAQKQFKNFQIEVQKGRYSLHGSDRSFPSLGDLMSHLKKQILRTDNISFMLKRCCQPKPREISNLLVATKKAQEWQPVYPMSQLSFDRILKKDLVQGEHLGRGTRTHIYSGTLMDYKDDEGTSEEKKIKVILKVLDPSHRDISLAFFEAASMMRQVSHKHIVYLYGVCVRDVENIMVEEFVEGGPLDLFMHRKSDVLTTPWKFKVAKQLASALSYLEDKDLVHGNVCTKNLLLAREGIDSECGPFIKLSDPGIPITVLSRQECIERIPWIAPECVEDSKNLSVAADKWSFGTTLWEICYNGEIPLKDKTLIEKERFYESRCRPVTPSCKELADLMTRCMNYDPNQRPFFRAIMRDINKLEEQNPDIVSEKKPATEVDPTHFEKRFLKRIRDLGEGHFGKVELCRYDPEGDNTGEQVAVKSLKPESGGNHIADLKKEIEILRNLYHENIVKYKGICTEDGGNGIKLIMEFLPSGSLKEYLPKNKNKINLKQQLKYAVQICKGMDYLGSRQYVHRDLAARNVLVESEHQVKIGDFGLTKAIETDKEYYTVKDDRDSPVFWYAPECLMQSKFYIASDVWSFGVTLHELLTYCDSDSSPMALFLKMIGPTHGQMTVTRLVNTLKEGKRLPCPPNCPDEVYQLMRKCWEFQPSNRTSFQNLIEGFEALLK

Kinase inhibition % at indicated screening concentration: AMPKa1 or AMPKa2 (AMPKa1 or AMPKa2)	Kinase inhibition % at indicated screening concentration: AurB or AurC (AurB or AurC)	inhibition at 1 µM (TAO2)	IC50 (ERK5)	inhibition at 1 µM (ERK5)	inhibition at 1 µM (JAK1)	inhibition at 1 µM (AurA)	inhibition at 1 µM (ACK)	Kinase inhibition % at indicated screening concentration: ABL or ARG (ABL or ARG)	Structure (SMILES)
E (E is ≦35%)	E (E is ≦35%)	≤ 35%	> 500 nM	50 to 75%	≤ 35%	≤ 35%	≤ 35%	E (E is ≦35%)	COC(=O)[C@H]1CC[C@H](Nc2cc3c(cn2)N(C)C(=O)c2ccccc2N3C)CC1 [Compound 81]
E (E is ≦35%)	E (E is ≦35%)	≤ 35%	> 500 nM	50 to 75%	≤ 35%	≤ 35%	≤ 35%	E (E is ≦35%)	CN1C(=O)c2ccccc2N(C)c2cc(Nc3ccccc3Cl)ncc21 [Compound 86]
E (E is ≦35%)	E (E is ≦35%)	≤ 35%	101 to 500 nM	50 to 75%	≤ 35%	≤ 35%	≤ 35%	E (E is ≦35%)	COc1ccc(C(=O)N2CCNCC2)cc1Nc1cc2c(cn1)N(C)C(=O)c1ccccc1N2C [Compound 87]
E (E is ≦35%)	E (E is ≦35%)	≤ 35%	> 500 nM	≤ 35%	≤ 35%	≤ 35%	≤ 35%	E (E is ≦35%)	CN1C(=O)C2CCCCC2N(C)c2cc(NC3CCC(N)CC3)ncc21 (stereo not drawn) [Compound 97]
